Data on twelve molecules can be found in patent publication US20130244999A1, “Substituted Heterocyclic Compounds” (Incyte Corporation, priority 2008, published 2013).

Molecules are shown by their SMILES.

Usually inhibition stands for the relative decrease from the control value, in per cent. The term IC50 denotes the midpoint of a concentration-inhibition curve.

T1 sequence (Q9H3N8 whole entry): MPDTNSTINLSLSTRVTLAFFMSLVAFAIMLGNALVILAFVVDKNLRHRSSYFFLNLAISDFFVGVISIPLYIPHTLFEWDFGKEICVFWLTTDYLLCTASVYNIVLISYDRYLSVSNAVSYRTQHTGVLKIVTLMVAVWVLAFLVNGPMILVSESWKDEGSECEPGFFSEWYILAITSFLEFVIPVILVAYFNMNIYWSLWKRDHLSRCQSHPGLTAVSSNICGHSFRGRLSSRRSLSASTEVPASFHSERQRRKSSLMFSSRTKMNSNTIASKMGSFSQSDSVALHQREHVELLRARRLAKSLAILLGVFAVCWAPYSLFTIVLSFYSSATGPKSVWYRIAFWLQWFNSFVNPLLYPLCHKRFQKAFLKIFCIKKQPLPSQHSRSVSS

The first assay concerns the target T1, histamine H4 receptor (Homo sapiens, UniProt Q9H3N8).
T1 construct: expressed in transfected cells; host or cells: HEK293SFM cells (membrane preparation)
As to the kind of experiment: Inhibition of histamine H4 receptor (Table A1; H4 membrane binding assay).
Details: not given
The procedure, abridged:
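Radioligand binding was measured by filtration through PEI-treated GF/B filters with scintillation counting, using 1000× unlabeled ligand to define nonspecific binding. Membranes were prepared from HEK293SFM cells recombinantly expressing human H4 in ice-cold 50 mM Tris-HCl, pH 7.5, plus protease inhibitors.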
Regarding `CCOC(=O)Nc1ccc2c(c1)CN(c1cc(N3CCN(C)CC3)nc(N)n1)CC2` [Example 34, Ethyl {2-[2-amino-6-(4-methylpiperazin-1-yl)pyrimidin-4-yl]-1,2,3,4-tetrahydroisoquinolin-7-yl}carbamate], the inhibition at 1 µM worked out at 69%.
Consider `CN1CCN(c2cc(N3CCc4ccc(NC(=O)N5CCCCC5)cc4C3)nc(N)n2)CC1` [Example 35, N-{2-[2-Amino-6-(4-methylpiperazin-1-yl)pyrimidin-4-yl]-1,2,3,4-tetrahydroisoquinolin-7-yl}piperidine-1-carboxamide], for which the inhibition at 1 µM is 66%.

Still in this assay, the particulars now being: histamine H4 receptor; "> a" = exceeds experiment limit.
For `CN1CCN(c2cc(N3CCc4ccc(C(=O)N(C)Cc5cccc(F)c5)cc4C3)nc(N)n2)CC1` [Example 25, 2-[2-Amino-6-(4-methylpiperazin-1-yl)pyrimidin-4-yl]-N-(3-fluorobenzyl)-N-methyl-1,2,3,4-tetrahydroisoquinoline-7-carboxamide], the IC50 was found to be 0.26 µM.
As to `CN1CCN(c2cc(N3CCc4ccc(C(=O)N5Cc6ccccc6C5)cc4C3)nc(N)n2)CC1` [Example 26, 4-[7-(1,3-Dihydro-2H-isoindol-2-ylcarbonyl)-3,4-dihydroisoquinolin-2(1H)-yl]-6-(4-methylpiperazin-1-yl)pyrimidin-2-amine], the concentration for half-maximal inhibition (IC50) is 0.244 µM.
Same read-out and setting: then `CN1CCN(c2cc(N3CCc4ccc(C(=O)N(C)C)cc4C3)nc(N)n2)CC1` [Example 27, 2-[2-Amino-6-(4-methylpiperazin-1-yl)pyrimidin-4-yl]-N,N-dimethyl-1,2,3,4-tetrahydroisoquinoline-7-carboxamide], with 0.67 µM; and `CN1CCN(c2cc(N3CCc4ccc(C(=O)NC5CCCC5)cc4C3)nc(N)n2)CC1` [Example 28, 2-[2-Amino-6-(4-methylpiperazin-1-yl)pyrimidin-4-yl]-N-cyclopentyl-1,2,3,4-tetrahydroisoquinoline-7-carboxamide], with 0.754 µM; and `CN1CCN(c2cc(N3CCc4ccc(C(=O)N5CCCC5)cc4C3)nc(N)n2)CC1` [Example 29, 4-(4-Methylpiperazin-1-yl)-6-[7-(pyrrolidin-1-ylcarbonyl)-3,4-dihydroisoquinolin-2 (1H)-yl]pyrimidin-2-amine], with 0.229 µM.
For the molecule `CCOC(=O)N1CCN(c2ccc3c(c2)CN(c2cc(N4CCN(C)CC4)nc(N)n2)CC3)CC1` [Example 30, Ethyl 4-{2-[2-amino-6-(4-methylpiperazin-1-yl)pyrimidin-4-yl]-1,2,3,4-tetrahydroisoquinolin-7-yl}piperazine-1-carboxylate], the half-maximal inhibitory concentration (IC50) is 0.282 µM.
The same measure, in the same setting: then `CC(=O)N1CCN(c2ccc3c(c2)CN(c2cc(N4CCN(C)CC4)nc(N)n2)CC3)CC1` [Example 31, 4-[7-(4-Acetylpiperazin-1-yl)-3,4-dihydroisoquinolin-2 (1H)-yl]-6-(4-methylpiperazin-1-yl)pyrimidin-2-amine], with 0.299 µM; and `CN1CCN(c2cc(N3CCc4ccc(N5CCN(C(=O)c6ccco6)CC5)cc4C3)nc(N)n2)CC1` [Example 32, 4-{7-[4-(2-Furoyl)piperazin-1-yl]-3,4-dihydroisoquinolin-2(1H)-yl}-6-(4-methylpiperazin-1-yl)pyrimidin-2-amine], with 0.178 µM.
The same measure, in the same setting: then `CN1CCN(c2cc(N3CCc4ccc(N5CCN(C(=O)Nc6ccc(Cl)cc6)CC5)cc4C3)nc(N)n2)CC1` [Example 33, 4-{2-[2-Amino-6-(4-methylpiperazin-1-yl)pyrimidin-4-yl]-1,2,3,4-tetrahydroisoquinolin-7-yl}-N-(4-chlorophenyl)piperazine-1-carboxamide], with 0.266 µM.
In turn, `CN1CCN(c2cc(N3CCc4ccc(N5CCC(C#N)CC5)cc4C3)nc(N)n2)CC1` [Example 36, 1-{2-[2-Amino-6-(4-methylpiperazin-1-yl)pyrimidin-4-yl]-1,2,3,4-tetrahydroisoquinolin-7-yl}piperidine-4-carbonitrile] yielded a half-maximal inhibitory concentration (IC50) of 0.393 µM.
